According to patent US8580731B2, “Insulin-gold nanocluster, pharmaceutical composition for reducing blood glucose comprising the same, and method for detecting adipose cells in tissue by using the same” (priority 2012, dated 2013):

Test system: insulin-degradation enzyme (IDE)
Assay: Insulin-Au NC fluorescence in mouse brain homogenate (IDE degradation and inhibition)
Assay type: biochemical
Conditions: inhibitor 0.01 to 1 mM pre-incubated 30 min with brain homogenate
Method: In addition, ten-week-old C57BL/6J male mice were well-anesthetized by i.p. injection of pentobarbital (75 mg/kg), and then the brain was removed and homogenated in PBS. The homogenate was then centrifuged at 6,000×g for 20 min and the supernatant was collected for the preparation of further experiments.
0.01, 0.1, and 1 mM doses of thiorphan or racecadotril, which was known as inhibiting agents for insulin-degradation enzyme (IDE), were co-incubated with the brain homogenates for 30 min, and then 10 μg/ml insulin-Au NCs was added and incubated with brain homogenates for 1 hour at 37° C. The detection of the insulin-Au NCs was determined by 450 nm and 650 nm of the emission excitation wavelength, respectively.

Structure (SMILES) | recovery of 670 nm emission (IDE inhibition)
CC(=O)SCC(Cc1ccccc1)C(=O)NCC(=O)OCc1ccccc1 (centres unmarked) [racecadotril] | signal recovery was increased
O=C(O)CNC(=O)C(CS)Cc1ccccc1 (centres unmarked) [thiorphan] | signal recovery was increased
